{"source": "patent US20240091242A1", "about": "“LIPIDS THAT REDUCE LUNG DAMAGE, IMPROVE PULMONARY FUNCTION AND DECREASE PRO-INFLAMMATORY CYTOKINES” (Signpath Pharma, Inc., priority 2021, published 2024)", "key": {"[1]": {"system": "murine LPS ARDS model", "assay": "Arterial blood oxygen saturation (SpO2), murine LPS ARDS model", "assay_type": "in vivo, mouse", "details": "72-hour study; compared to untreated LPS group; did not reach statistical significance", "experimental": "(§1) In the ARDS group, mice received Escherichia coli O111:B4 lipopolysaccharide (50 μg in 0.05 mL saline, i.t.), while, in the control group, the animals received an instillation of saline (0.05 mL, i.t.). For intratracheal instillation, mice were slightly anesthetized with isoflurane.\nThe lipid SPPCT-800 was dissolved in water (low dose—2 mg/ml; high dose—20 mg/ml). For the 24-hour study, two treatment approaches were used. Mice received a single dose of SPPCT-800 (200 mg/kg, per gavage) as prevention (30 minutes before the LPS instillation), or as a single dose of either 20 mg/kg or 200 mg/kg as therapy (3-hour after the LPS instillation). For the 72-hour study, mice received a total of 8 treatments of SPPCT-800 (200 mg/kg) starting at 3-hour after the LPS instillation. Disease progression in mice was assessed by the evaluation of pulmonary functions, blood oxygen saturation, and body weight change. […]\nAt 0 hour (baseline), 24-hour post-LPS instillation, and 48 and 72-hour post LPS instillation, arterial blood oxygen saturation (SpO2) was recorded on conscious mice. SpO2 was read off of a pulse oximeter (STARR Life Sciences MouseOx Plus system, Oakmont, PA) with a mouse collar probe installed at the carotid level. The saturation values were measured in percentages (%).\n(§2) Statistical Analysis. Results are expressed as means±SEM. […]"}, "[2]": {"system": "murine LPS ARDS model", "assay": "Histopathological evaluation (lung injury score), murine LPS ARDS model", "assay_type": "in vivo, mouse", "experimental": "as §1\nThe lipid SPPCT-800 was dissolved in water (low dose—2 mg/ml; high dose—20 mg/ml). For the 24-hour study, two treatment approaches were used. Mice received a single dose of SPPCT-800 (200 mg/kg, per gavage) as prevention (30 minutes before the LPS instillation), or as a single dose of either 20 mg/kg or 200 mg/kg as therapy (3-hour after the LPS instillation). For the 72-hour study, mice received a total of 8 treatments of SPPCT-800 (200 mg/kg) starting at 3-hour after the LPS instillation. Disease progression in mice was assessed by the evaluation of pulmonary functions, blood oxygen saturation, and body weight change. On the terminal day of each study (24 hours or 72 hours), measurement of cytokine levels in the plasma and BALF, and histopathology evaluations were done.\nHistopathological Evaluation. […] A blinded histologist evaluated the general morphology of alveolar septa, lung structure, and inflammation according to the general scoring described and adopted by Matute-Bello, et al.^25, 26\nas §2"}, "[3]": {"assay": "Detectable activity after a single dose", "assay_type": "in vivo"}}}
{"smiles": "CCCCCCCCCCCCCC(=O)OCC(COP(=O)([O-])OCC(COC(=O)CCC)OC(=O)CCC)OC(=O)CCCCCCCCCCCCC.CCCCCCCCCCCCCC(=O)OCC(COP(=O)([O-])OCC(COC(=O)CCC)OC(=O)CCC)OC(=O)CCCCCCCCCCCCC.[Mg+2]", "note": "(stereo not shown) [SPPCT-800]", "values": [{"measurement": "SpO2 levels", "setting": "[1]", "value": "maintained"}, {"measurement": "lung injury score", "setting": "[2]; at 24 hours, given 30 minutes prior to LPS as a preventative, P<0.01", "value": 0.3}, {"measurement": "lung injury score", "setting": "[2]; at 72 hours, multi-dose treatment group", "value": 2.2}, {"measurement": "single dose with detectable activity", "setting": "[3]", "value": 1, "unit": "mg/kg"}]}
